Each structure is given as a SMILES string. “Also recorded” adds a separate entry of the source.

One experiment deals with α5^+ HT29 cells. In words: Cell adhesion assay, adhesion to fibronectin. The experiment is classed as cell-based, human. From the text:
(§1) HT29 integrin α5β1^+ cells, integrin α5β1^− colon carcinoma cells (Varner et al., Mol. Biol. Cell 6:725–740 (1995)), and chick embryo fibroblasts (CEF's) were maintained in DMEM high glucose supplemented with 10% fetal bovine serum (FBS) and gentamycin. Human umbilical vein endothelial cells (HUVEC's) were maintained in M199 medium containing sodium bicarbonate, HEPES, heparin, endothelial cell growth supplement, 20% FBS and gentamycin. Culture media and reagents were from Irvine Scientific (Irvine, Calif.).
(§2) The wells of 48 well culture dishes (Costar, Inc.) were coated with 1 μg/ml vitronectin, 2 μg/ml fibronectin (chick embryo fibroblasts and HUVEC's) or 10 μg/ml fibronectin (HT29-α5^+ cells) for 1 hr at 37° C., then blocked with 2% heat denatured BSA in PBS for 1 hr. Fifty thousand cells in 250 μl of adhesion buffer were added to triplicate wells containing 250 μl of a solution of 50 μg/ml of an anti-α5β1 function blocking antibody (NKI-SAM-1, JBS5 or IIA1), 50 μg/ml of an anti-α5β1 non-function blocking antibody (HA5 or VC5; Pharmingen, Inc.; San Diego Calif.), 10 μM cyclic peptides (Koivunen et al., J. Biol. Chem. 268:20205–20210 (1993); Koivunen et al., J. Cell Biol. 124:373380 (1994)), 0–10 μM SJ749 ((S)-2-{(2,4,6-trimethylphenyl)sulfonyl}amino-3{7-benzyloxycarbonyl-8-(2-pyridinylaminomethyl)-1-oxa-2,7-diazaspiro-{4,4}-non-2-en-3-yl}carbonylamino}propionic acid)), 50 μg/ml of LM609, an anti-αVβ3 function blocking antibody, 50 μg/ml P4C10, an anti-β1 function blocking antibody, 50 μg/ml of an anti-fibronectin cell binding domain monoclonal antibody or 50 μg/ml of an anti-fibronectin N-terminus monoclonal antibody in adhesion buffer (HEPES buffered Hanks balanced salt solution, HBSS, containing 1% BSA, 2 mM MgCl2, 2 mM CaCl2 and 0.2 mM MnCl2).
Cells were allowed to adhere to dishes for 20 min at 37° C. Nonadherent cells were removed by washing each well four times with 500 μl of warm adhesion buffer. […] Crystal violet was extracted by incubation for 15 min in 10% acetic acid and absorbance at 562 nm determined as an indicator of number of cells bound. […]

The test system of experiment [1] is HT29 colon carcinoma cells lacking α5β1 expression. The experiment is described as follows: Chick CAM tumor assay, HT29. The experiment is classed as in vivo. Particulars: HT29 tumors on CAM. Here is the method: The chick CAM tumor assay was performed by placing ten million tumor cells on the surface of a CAM, and culturing the cells for one week. The resulting tumors were excised and cut into 50 mg fragments. […] Forty-eight hours later, CAM's were excised from the egg and the number of blood vessels entering the tumors were counted (as vessel branch points).
Data was presented as mean blood vessel number per treatment group (+/− standard error of measurement). Each treatment group incorporated at least ten tumors per experiment. Representative tumors were photographed at 10× magnification. Tumors were excised from the egg and tumor weights were determined for each tumor Data was presented as mean tumor weight per treatment group (+/− standard error of measurement). Statistical analyses were performed using Student's t-test.
HT29 colon carcinoma cells lacking α5β1 expression were grown on the CAM's of 10-day old embryos. These tumor cells secrete several angiogenic growth factors, including VEGF, TGFα, TGFβ, TNFα, and IL-8 (Anzano et al., Cancer Res. 49:2898–2904 (1989); Varner et. al., supra, 1995; Ellis et al., J. Biol. Chem. 273:1052–1057 (1998)). Integrin α5β1 negative tumor cells were used to distinguish the potential anti-tumor effects from anti-vasculature effects of integrin α5β1 antagonists.

The test system of experiment [2] is Human umbilical vein endothelial cells (HUVEC's). In words: Cell adhesion assay, adhesion to fibronectin. Format: cell-based.
Description: as §1, §2
(§3) Cells were allowed to adhere to dishes for 20 min at 37° C. Nonadherent cells were removed by washing each well four times with 500 μl of warm adhesion buffer. Adherent cells were then fixed for 15 min with 3.7% paraformaldehyde in PBS and stained with a 2% crystal violet solution. After extensive water washing to remove excess crystal violet, plates were dried overnight. Crystal violet was extracted by incubation for 15 min in 10% acetic acid and absorbance at 562 nm determined as an indicator of number of cells bound. Each experiment was performed in triplicate, with triplicate samples per condition.

For experiment [3], the system named is chick embryo fibroblasts (CEF's). In words: Cell adhesion assay, adhesion to fibronectin. Format: cell-based.
Description: as §1, §2, §3

Experiment [4] relates to α5^+ HT29 colon carcinoma cells, CEF's and HUVEC's. The experiment is described as follows: Cell adhesion assay, attachment to vitronectin. Format: cell-based. Particulars: vitronectin coating.
Description: as §1
The wells of 48 well culture dishes (Costar, Inc.) were coated with 1 μg/ml vitronectin, 2 μg/ml fibronectin (chick embryo fibroblasts and HUVEC's) or 10 μg/ml fibronectin (HT29-α5^+ cells) for 1 hr at 37° C., then blocked with 2% heat denatured BSA in PBS for 1 hr. […]
Cells were allowed to adhere to dishes for 20 min at 37° C. […] Crystal violet was extracted by incubation for 15 min in 10% acetic acid and absorbance at 562 nm determined as an indicator of number of cells bound. […]

In experiment [5] the test system is bFGF-induced angiogenesis on the chick CAM. The experiment is described as follows: In ovo chick CAM angiogenesis assay, bFGF stimulated. Conditions: bFGF stimulated CAM. The experiment is classed as in vivo. From the text: Ten day old embryonated chicken eggs (McIntyre Poultry; Ramona Calif.) were candled to illuminate blood vessels under the shell and an area with a minimum of small blood vessels is identified. The CAM was dropped away from the eggshell in this area by grinding a small hole in the mineralized shell and applying pressure to the underlying inner shell membrane. This procedure caused an air pocket to shift from the wide end of the egg to the identified area and forcing a circular region of the CAM approximately 2 cm in diameter to drop away from the shell. A window was cut in the egg shell and a cortisone acetate pre-treated filter disc 5 mm in diameter that had been saturated in 1 μg/ml bFGF, VEGF, TNFα, IL-8 (Genzyme, Inc.; Cambridge Mass.) or saline was placed on the CAM. The window in the shell was sealed with adhesive tape and the egg was incubated for four days.
Anti-fibronectin antibodies (25 μg in 25 μl) also were applied topically to the CAM.
Fibronectin, vitronectin and fibronectin fragments (59 pmol in a final volume of 25 μl) were applied to stimulated or unstimulated CAM's. Peptide or small molecule antagonists of α5β1 (at a final serum concentration of 0–25 μM) also were injected intravenously into the chick circulation 24 hr later. CAM's were harvested on the fourth day of stimulation. Blood vessel branch points in the 5 mm filter disk area were counted at 30× magnification in a blinded fashion as a size-independent quantitative indicator of vascular sprouting in response to growth factors. Angiogenesis is characterized by the sprouting of new vessels in response to growth factors. Thus, counting of blood vessel branch points is a useful quantitative means of obtaining an angiogenic index (Brooks et al., In “Methods in Molecular Biology” (Humana Press 1999). At least ten embryos were used per treatment group. Each experiment was performed a minimum of three times.
Data was evaluated in terms of average number of blood vessel branch points per treatment group +/−standard error of measurement . Statistical analyses were performed using Student's t-test. Representative CAMS from each treatment group were photographed at 10X magnification. In some cases, CAM tissue excised from the egg was frozen in OCT (Baxter; McGraw Park Ill.) in liquid nitrogen, cut into 5 μm sections, air dried and processed for immunohistochemical analysis as described in Example I, except without fixation.

As for `Cc1cc(C)c(S(=O)(=O)N[C@@H](CNC(=O)C2=NOC3(C2)CC(CNc2ccccn2)N(C(=O)OCc2ccccc2)C3)C(=O)O)c(C)c1` (stereo partly drawn) [SJ749], the “effect on adhesion to fibronectin” value is on record as “inhibitory effect” in the experiment on α5^+ HT29 cells, “blocked” in experiment [2] and “blocked” in experiment [3]. For the same compound, the “effect on tumor size” value in experiment [1] was “induced tumor regression”. For the same compound, the “effect on cell attachment to vitronectin” value in experiment [4] is “ineffective”. Further, the “effect on bFGF-induced angiogenesis” value in experiment [5] was “blocked; also recorded: dose dependent inhibitory effect; also recorded: reduced or inhibited angiogenesis in a dose dependent manner”.
